Test results published in US20230255938A1, “COMPOSITION FOR INHIBITING SEBUM SECRETION COMPRISING FABP4 INHIBITOR” (THE INDUSTRY & ACADEMIC COOPERATION IN CHUNGNAM NATIONAL …, priority 2022, published 2023).

Tests used:
Type in all cases: cell-based
PPAR-γ = experiment: Western blotting of PPAR-γ in IGF-1-treated immortalized human sebocytes; conditions: 1, 2 or 5 μM BMS309403 for 1 hour, then 50 ng/mL IGF-1; Western blot, FIG. 1 upper left
Description: (§1) Immortalized human sebocytes were used for the experiment. The cell lines were established as previously described. All procedures were approved by the Institutional Committee of Chungnam National University Hospital. The immortalized human sebocytes were cultured in Sebomed medium (Biochrom, Berlin, Germany) supplemented with 10% fetal bovine serum (Gibco BRL, Rockville, Md., USA) and 5 ng/mL of recombinant human EGF (Invitrogen, Grand Island, N.Y., USA).
(§2) After harvesting, the cells were lysed in protein extraction solution (Intron, Daejeon, Korea). Equal amounts of protein were then loaded and separated by […], and then the proteins were transferred onto nitrocellulose membranes (Pall Corp., Port Washington, N.Y., USA). After blocking with 5% skim milk, the membranes were incubated with various primary antibodies. The blot was reacted with a secondary antibody conjugated with peroxidase, and were visualized for specific proteins with ECL (BIOMAX, Seoul, Korea). The primary antibodies used in western blot analysis were as follows: Actin, SREBP-1(Santa Cruz, Calif.), PPAR-γ, phospho-IGFR (p-IGFR), phospho-Akt (Cell Signaling Technology, Danvers, Mass.)
(§3) The effect of BMS309403 on IGF-1-induced lipid synthesis was measured using an immortalized human sebaceous cell line established in a previous study. Immortalized human sebocytes were treated with 1, 2 or 5 μM of BMS309403. […]

SREBP-1 = experiment: Western blotting of SREBP-1 in IGF-1-treated immortalized human sebocytes; conditions: 1, 2 or 5 μM BMS309403 for 1 hour, then 50 ng/mL IGF-1; Western blot, FIG. 1 upper left
Description: as §1, §2, §3

phospho-Akt = experiment: Western blotting of phospho-Akt in IGF-1-treated immortalized human sebocytes; conditions: 1, 2 or 5 μM BMS309403 for 1 hour, then 50 ng/mL IGF-1; Western blot, FIG. 1 lower left
Description: as §1, §2, §3

phospho-IGFR (p-IGFR) = experiment: Western blotting of phospho-IGFR in IGF-1-treated immortalized human sebocytes; conditions: 1, 2 or 5 μM BMS309403 for 1 hour, then 50 ng/mL IGF-1; Western blot, FIG. 1 lower left
Description: as §1, §2, §3

[1] = test system: immortalized human sebocytes; experiment: TLC of intracellular lipids (14C-acetate), IGF-1-induced lipid synthesis; conditions: 1, 2 or 5 μM; TLC 48 hours after IGF-1 (50 ng/mL) treatment; FIG. 1 right
Description: as §1
For quantitative analysis of intracellular lipids, the present invention used the TLC method as used in previous studies. Briefly, immortalized human sebocytes were cultured in a medium containing 2 μCi of ^14C-acetate and sodium salt (PerkinElmer, Boston, Mass., USA) and allowed to react for 4 hours. Intracellular lipids were extracted with chloroform and methanol (2:1, v/v). The solvent was evaporated and the lipid was resuspended in chloroform. TLC (TLC silica gel 60 F254, Merck KgaA) was used to separate intracellular lipids. After development with hexane and ethyl acetate (6:1, v/v), intracellular lipids were visualized by radioactivity measurement.
The effect of BMS309403 on IGF-1-induced lipid synthesis was measured using an immortalized human sebaceous cell line established in a previous study. Immortalized human sebocytes were treated with 1, 2 or 5 μM of BMS309403. After treatment with BMS309403 for 1 hour, sebocytes were treated with 50 ng/mL of IGF-1 to induce differentiation and lipid synthesis.
IGF-1 increased the Intracellular lipid synthesis such as cholesterol, triglycerides, wax esters and squalene in immortalized human sebocytes.

## CCc1c(-c2ccccc2)c(-c2ccccc2)nn1-c1ccccc1-c1cccc(OCC(=O)O)c1 [BMS309403]
PPAR-γ
  level of PPAR-γ (transcription factor related to sebocyte differentiation): decreased their levels in a dose-dependent manner
SREBP-1
  level of SREBP-1 (transcription factor related to sebocyte differentiation): decreased their levels in a dose-dependent manner
phospho-Akt
  phosphorylation of Akt: markedly reduced phosphorylation of IGFR and Akt in a dose-dependent manner
phospho-IGFR (p-IGFR)
  phosphorylation of IGFR: markedly reduced phosphorylation of IGFR and Akt in a dose-dependent manner
[1]
  IGF-1-induced lipid synthesis (cholesterol, triglycerides, wax esters and squalene): reduced IGF-1-induced lipid synthesis
  intracellular lipid accumulation: reduced intracellular lipid accumulation in a dose-dependent manner
  synthesis of squalene: significantly reduced
  synthesis of wax esters: significantly reduced
